Patent US8987250B2 (Gilead Sciences, Inc., priority 2012, dated 2015)

System: HIV-IIIb
Assay: Test A: Antiviral Assay in MT4 Cells
Format: cell-based
Details: Human immunodeficiency virus 1, IIIB, MT4, 120 h, Table 2; MT-4 cells infected with HIV-IIIb, 5 days of incubation, CellTiter-Glo; read-out: EC50
Method in brief: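 Read-out: CellTiter-Glo chemiluminescence after 5-day incubation at 37 °C. Compounds tested as 3-fold serial dilutions (10 concentrations, quadruplicate) in RPMI 1640 with 10% FBS, on MT-4 cells pre-infected at 37 °C with HIV-IIIb at 0.004 m.o.i.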

Compound | EC50 [nM]
Cc1cc2nc(-c3ccc4nn(C)cc4n3)sc2c(-c2ccc(Cl)cc2)c1[C@H](OC(C)(C)C)C(=O)O [Compound 366] | 6
Cc1cc2nc(-c3ccc4c(cnn4C)n3)sc2c(-c2ccc(Cl)cc2)c1[C@H](OC(C)(C)C)C(=O)O [Compound 367] | 6
Cc1cc2nc(-c3ccnc(-c4cc5cn(C)nc5cn4)c3)sc2c(-c2ccc(Cl)cc2)c1[C@H](OC(C)(C)C)C(=O)O [Compound 368] | 5
Cc1cc2nc(-c3ccnc(-c4cc5cnn(C)c5cn4)c3)sc2c(-c2ccc(Cl)cc2)c1[C@H](OC(C)(C)C)C(=O)O [Compound 369] | 8
Cc1cc2nc(-c3ccnc(-c4ccc5nn(C)cc5n4)c3)sc2c(-c2ccc(Cl)cc2)c1[C@H](OC(C)(C)C)C(=O)O [Compound 370] | 4
Cc1cc2nc(-c3ccnc(-c4ccc5nn(C6COC6)cc5c4)c3)sc2c(-c2ccc(Cl)cc2)c1[C@H](OC(C)(C)C)C(=O)O [Compound 371] | 7
Cc1cc2nc(-c3ccnc(-c4ccc5c(cnn5C5COC5)c4)c3)sc2c(-c2ccc(Cl)cc2)c1[C@H](OC(C)(C)C)C(=O)O [Compound 372] | 7
CCCn1ncc2cc(-c3cc(-c4nc5cc(C)c([C@H](OC(C)(C)C)C(=O)O)c(-c6ccc(Cl)cc6)c5s4)ccn3)ccc21 [Compound 373] | 37
Cc1cc2nc(-c3ccnc(-c4ccc5c(cnn5C(C)C)c4)c3)sc2c(-c2ccc(Cl)cc2)c1[C@H](OC(C)(C)C)C(=O)O [Compound 374] | 45
Cc1cc2nc(-c3cc(-c4ccc5c(cnn5C)c4)ccn3)sc2c(-c2ccc(Cl)cc2)c1[C@H](OC(C)(C)C)C(=O)O [Compound 375] | 228
Cc1cc2nc(-c3ccnc(-c4cnn(C)c4C)c3)sc2c(-c2ccc(Cl)cc2)c1[C@H](OC(C)(C)C)C(=O)O [Compound 376] | 19
Cc1cc2nc(-c3cnc4c(c3)c(N3CCN(C)CC3)cn4C)sc2c(-c2ccc(Cl)cc2)c1[C@H](OC(C)(C)C)C(=O)O [Compound 377] | 32
Cc1cc2nc(-c3cnc4c(c3)c(C3=CCN(C)CC3)cn4C)sc2c(-c2ccc(Cl)cc2)c1[C@H](OC(C)(C)C)C(=O)O [Compound 378] | 51
Cc1cc2cc(-c3nc4cc(C)c([C@H](OC(C)(C)C)C(=O)O)c(-c5ccc(Cl)cc5)c4s3)cnc2[nH]1 [Compound 379] | 15
Cc1cc2cc(-c3cc(-c4nc5cc(C)c([C@H](OC(C)(C)C)C(=O)O)c(-c6ccc(Cl)cc6)c5s4)ccn3)cnc2[nH]1 [Compound 380] | 25
Cc1cc2nc(-c3cn(C)c4ncc(F)cc34)sc2c(-c2ccc(Cl)cc2)c1[C@H](OC(C)(C)C)C(=O)O [Compound 381] | 47
Cc1cc2nc(-c3ccnc(-c4cn(C)c5ncc(F)cc45)c3)sc2c(-c2ccc(Cl)cc2)c1[C@H](OC(C)(C)C)C(=O)O [Compound 382] | 91
Cc1cc2nc(-c3ccnc(-c4ccc5c(c4)c(N)nn5C)c3)sc2c(-c2ccc(Cl)cc2)c1[C@H](OC(C)(C)C)C(=O)O [Compound 383] | 18
Cc1cc2nc(C3CC=Cc4nn(C)cc43)sc2c(-c2ccc(Cl)cc2)c1[C@H](OC(C)(C)C)C(=O)O (some centres unmarked) [Compound 384] | 332
Cc1cnc2n(C)cc(-c3cc(-c4nc5cc(C)c([C@H](OC(C)(C)C)C(=O)O)c(-c6ccc(Cl)cc6)c5s4)ccn3)cc1-2 [Compound 385] | 143

Compound | EC50 [nM]
Cc1cc2nc(-c3ccnc(-c4cnc5c(c4)c(C)cn5C)c3)sc2c(-c2ccc(Cl)cc2)c1[C@H](OC(C)(C)C)C(=O)O [Compound 386] | 56
Cc1cc2nc(-c3cccc4c3cnn4C)sc2c(-c2ccc(Cl)cc2)c1[C@H](OC(C)(C)C)C(=O)O [Compound 387] | 530
Cc1cc2nc(-c3cccc4c3OCC(=O)N4)sc2c(-c2ccc(Cl)cc2)c1[C@H](OC(C)(C)C)C(=O)O [Compound 388] | 28
Cc1cc2nc(-c3ccnc(-c4ccc5c(c4)OCC(=O)N5C)c3)sc2c(-c2ccc(Cl)cc2)c1[C@H](OC(C)(C)C)C(=O)O [Compound 389] | 7
Cc1cc2nc(-c3ccnc(-c4cccc5c4OCC(=O)N5C)c3)sc2c(-c2ccc(Cl)cc2)c1[C@H](OC(C)(C)C)C(=O)O [Compound 390] | 9
Cc1cc2nc(-c3ccnc(-c4ccc5c(c4)OCC(=O)N5)c3)sc2c(-c2ccc(Cl)cc2)c1[C@H](OC(C)(C)C)C(=O)O [Compound 391] | 11
Cc1cc2nc(-c3ccnc(-c4cccc5c4OCC(=O)N5)c3)sc2c(-c2ccc(Cl)cc2)c1[C@H](OC(C)(C)C)C(=O)O [Compound 392] | 27
Cc1cc2nc(-c3ccnc(-c4ccc5c(c4)N(C)C(=O)CO5)c3)sc2c(-c2ccc(Cl)cc2)c1[C@H](OC(C)(C)C)C(=O)O [Compound 393] | 33
Cc1cc2nc(-c3ccnc(-c4ccc5c(c4)NC(=O)CO5)c3)sc2c(-c2ccc(Cl)cc2)c1[C@H](OC(C)(C)C)C(=O)O [Compound 394] | 25
Cc1cc2nc(-c3cccc(-c4ccc5c(n4)N(C)CCO5)c3)sc2c(-c2ccc(Cl)cc2)c1[C@H](OC(C)(C)C)C(=O)O [Compound 395] | 61
Cc1cc2nc(-c3ccnc(-c4cnc5c(c4)OCCN5C)c3)sc2c(-c2ccc(Cl)cc2)c1[C@H](OC(C)(C)C)C(=O)O [Compound 396] | 10
Cc1cc2nc(-c3ccnc(-c4ccc5c(c4)CCN5C)c3)sc2c(-c2ccc(Cl)cc2)c1[C@H](OC(C)(C)C)C(=O)O [Compound 397] | 32
Cc1cc2nc(-c3ccnc(-c4cccc5c4CCN5C)c3)sc2c(-c2ccc(Cl)cc2)c1[C@H](OC(C)(C)C)C(=O)O [Compound 398] | 36
Cc1cc2nc(-c3ccnc(-c4ccc5c(c4)N(C)CC5)c3)sc2c(-c2ccc(Cl)cc2)c1[C@H](OC(C)(C)C)C(=O)O [Compound 399] | 43
Cc1cc2nc(-c3ccnc(-c4ccc5c(c4)OCCN5C)c3)sc2c(-c2ccc(Cl)cc2)c1[C@H](OC(C)(C)C)C(=O)O [Compound 400] | 16
Cc1cc2nc(-c3ccnc(-c4ccc5c(c4)C(=O)N(C)CCO5)c3)sc2c(-c2ccc(Cl)cc2)c1[C@H](OC(C)(C)C)C(=O)O [Compound 401] | 23
COc1ncc(-c2cc(-c3nc4cc(C)c([C@H](OC(C)(C)C)C(=O)O)c(-c5ccc(Cl)cc5)c4s3)ccn2)cn1 [Compound 402] | 35
CCOc1ncc(-c2cc(-c3nc4cc(C)c([C@H](OC(C)(C)C)C(=O)O)c(-c5ccc(Cl)cc5)c4s3)ccn2)cn1 [Compound 403] | 42
Cc1cc2nc(-c3ccnc(-c4ccc5c(c4)N(C)CCO5)c3)sc2c(-c2ccc(Cl)cc2)c1[C@H](OC(C)(C)C)C(=O)O [Compound 404] | 41
Cc1cc2nc(-c3ccnc(-c4cnc5c(c4)ncn5C)c3)sc2c(-c2ccc(Cl)cc2)c1[C@H](OC(C)(C)C)C(=O)O [Compound 405] | 37

Compound | EC50 [nM]
Cc1cc2nc(-c3ccnc(-c4cnc5ncn(C)c5c4)c3)sc2c(-c2ccc(Cl)cc2)c1[C@H](OC(C)(C)C)C(=O)O [Compound 406] | 149
Cc1cc2nc(-c3ccnc(-c4ccc5c(c4)nnn5C)c3)sc2c(-c2ccc(Cl)cc2)c1[C@H](OC(C)(C)C)C(=O)O [Compound 407] | 14
Cc1cc2nc(-c3ccnc(-c4cnn(C(C)(C)C)c4)c3)sc2c(-c2ccc(Cl)cc2)c1[C@H](OC(C)(C)C)C(=O)O [Compound 408] | 27
Cc1cc2nc(-c3ccc4c(c3)nc(C)n4C3CC3)sc2c(-c2ccc(Cl)cc2)c1[C@H](OC(C)(C)C)C(=O)O [Compound 409] | 10
Cc1cc2nc(-c3ccc4c(c3)nc(C)n4C(C)C)sc2c(-c2ccc(Cl)cc2)c1[C@H](OC(C)(C)C)C(=O)O [Compound 410] | 9
Cc1cc2nc(-c3ccc4c(c3)nc(C(C)C)n4C)sc2c(-c2ccc(Cl)cc2)c1[C@H](OC(C)(C)C)C(=O)O [Compound 411] | 8
Cc1cc2nc(-c3ccc4nc(C)n(C5CCOCC5)c4c3)sc2c(-c2ccc(Cl)cc2)c1[C@H](OC(C)(C)C)C(=O)O [Compound 412] | 16
Cc1cc2nc(-c3ccc4nc(C)n(C5CCN(C)CC5)c4c3)sc2c(-c2ccc(Cl)cc2)c1[C@H](OC(C)(C)C)C(=O)O [Compound 413] | 33
Cc1cc2nc(-c3ccc4ncn(C5CCN(C)CC5)c4c3)sc2c(-c2ccc(Cl)cc2)c1[C@H](OC(C)(C)C)C(=O)O [Compound 414] | 32
Cc1cc2nc(-c3ccc4c(c3)ncn4C)sc2c(-c2ccc(Cl)cc2)c1[C@H](OC(C)(C)C)C(=O)O [Compound 415] | 10
Cc1cc2nn(C)cc2cc1-c1cc(-c2nc3cc(C)c([C@H](OC(C)(C)C)C(=O)O)c(-c4ccc(Cl)cc4)c3s2)ccn1 [Compound 416] | 25
Cc1cc2nc(-c3ccnc(-c4ccc5c(cnn5C)c4C)c3)sc2c(-c2ccc(Cl)cc2)c1[C@H](OC(C)(C)C)C(=O)O [Compound 417] | 18
Cc1cc2nc(-c3ccnc(-c4ccc5nn(C)cc5c4C)c3)sc2c(-c2ccc(Cl)cc2)c1[C@H](OC(C)(C)C)C(=O)O [Compound 418] | 11
Cc1cc2c(cnn2C)cc1-c1cc(-c2nc3cc(C)c([C@H](OC(C)(C)C)C(=O)O)c(-c4ccc(Cl)cc4)c3s2)ccn1 [Compound 419] | 13
Cc1cc2[nH]ncc2cc1-c1cc(-c2nc3cc(C)c([C@H](OC(C)(C)C)C(=O)O)c(-c4ccc(Cl)cc4)c3s2)ccn1 [Compound 420] | 14
Cc1cc2nc(-c3ccnc(-c4ccc5[nH]ncc5c4C)c3)sc2c(-c2ccc(Cl)cc2)c1[C@H](OC(C)(C)C)C(=O)O [Compound 421] | 20
Cc1cc2nc(-c3ccnc(-c4cc(C)c5[nH]ncc5c4)c3)sc2c(-c2ccc(Cl)cc2)c1[C@H](OC(C)(C)C)C(=O)O [Compound 422] | 32
Cc1cc2nc(-c3ccc4cnccc4c3)sc2c(-c2ccc(Cl)cc2)c1[C@H](OC(C)(C)C)C(=O)O [Compound 427] | 14
Cc1cc2nc(-c3ccc4c(c3)c(-c3cnccn3)nn4C)sc2c(-c2ccc(Cl)cc2)c1[C@H](OC(C)(C)C)C(=O)O [Compound 428] | 7
